In general, inhibition refers to the change of the read-out against control, counted positive when it falls.

SMILES strings stand for the structures.

Details in all cases: Compound concentration 10 µM
In experiment [1] the target is T1, Alpha-2A adrenergic receptor (Homo sapiens) (UniProt P08913).
T1 sequence (whole entry): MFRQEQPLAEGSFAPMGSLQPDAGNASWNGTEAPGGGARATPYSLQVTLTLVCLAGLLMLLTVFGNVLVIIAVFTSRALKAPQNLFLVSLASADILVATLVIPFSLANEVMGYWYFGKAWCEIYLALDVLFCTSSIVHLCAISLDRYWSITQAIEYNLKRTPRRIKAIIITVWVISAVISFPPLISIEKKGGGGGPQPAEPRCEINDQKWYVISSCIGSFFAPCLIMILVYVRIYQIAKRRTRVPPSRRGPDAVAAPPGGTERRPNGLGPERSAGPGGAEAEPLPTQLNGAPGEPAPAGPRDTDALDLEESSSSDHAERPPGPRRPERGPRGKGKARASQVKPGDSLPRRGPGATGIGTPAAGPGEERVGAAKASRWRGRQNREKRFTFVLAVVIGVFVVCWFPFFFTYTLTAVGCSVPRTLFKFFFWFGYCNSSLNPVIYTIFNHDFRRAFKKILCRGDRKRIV
Description: PDSP Primary Binding target: ADRA2A - Compounds are tested at 10 uM concentration, plate are incubated at room temperature in the dark for 90 minutes. Reaction are stopped by vacuum filtration onto 0.3% polyethyleneimine soaked filter mats using Filtermate harvester. Scintilation cocktail is then melted onto microwave-dried filters on a hot plate and the radio activity is counted in Microbia counter.

The target of experiment [2] is Mu-type opioid receptor (Homo sapiens) (UniProt P35372).
Chain of Mu-type opioid receptor (Homo sapiens) (P35372 whole entry): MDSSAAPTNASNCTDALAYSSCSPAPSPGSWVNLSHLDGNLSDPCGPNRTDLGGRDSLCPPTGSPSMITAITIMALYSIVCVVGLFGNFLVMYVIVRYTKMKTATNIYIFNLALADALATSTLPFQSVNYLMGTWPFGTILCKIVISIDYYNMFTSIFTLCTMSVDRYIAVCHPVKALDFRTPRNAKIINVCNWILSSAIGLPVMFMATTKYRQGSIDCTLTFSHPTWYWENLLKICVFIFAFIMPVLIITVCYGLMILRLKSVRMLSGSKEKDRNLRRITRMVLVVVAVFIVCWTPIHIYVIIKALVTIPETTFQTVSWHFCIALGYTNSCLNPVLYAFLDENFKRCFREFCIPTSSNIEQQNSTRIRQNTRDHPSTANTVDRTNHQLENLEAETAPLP
Description: PDSP Primary Binding target: OPRM1 - Compounds are tested at 10 uM concentration, plate are incubated at room temperature in the dark for 90 minutes. Reaction are stopped by vacuum filtration onto 0.3% polyethyleneimine soaked filter mats using Filtermate harvester. Scintilation cocktail is then melted onto microwave-dried filters on a hot plate and the radio activity is counted in Microbia counter.
The target in experiment [3] is T2, Muscarinic acetylcholine receptor M5 (Homo sapiens) (UniProt P08912).
T2 sequence (whole entry): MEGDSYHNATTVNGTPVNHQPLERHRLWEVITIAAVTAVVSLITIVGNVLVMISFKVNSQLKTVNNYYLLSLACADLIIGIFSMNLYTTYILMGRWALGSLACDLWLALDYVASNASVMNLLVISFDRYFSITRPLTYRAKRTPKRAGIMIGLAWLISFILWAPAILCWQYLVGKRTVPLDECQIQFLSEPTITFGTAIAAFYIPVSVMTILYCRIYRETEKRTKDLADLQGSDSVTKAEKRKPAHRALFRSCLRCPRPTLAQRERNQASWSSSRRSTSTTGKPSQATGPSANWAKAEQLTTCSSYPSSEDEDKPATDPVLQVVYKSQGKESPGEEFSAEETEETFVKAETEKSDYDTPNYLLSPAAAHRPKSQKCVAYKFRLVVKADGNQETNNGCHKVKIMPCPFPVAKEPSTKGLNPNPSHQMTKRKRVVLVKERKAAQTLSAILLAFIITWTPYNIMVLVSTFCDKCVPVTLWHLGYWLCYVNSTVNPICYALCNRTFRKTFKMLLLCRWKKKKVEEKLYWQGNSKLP
Description: PDSP Primary Binding target: CHRM5 - Compounds are tested at 10 uM concentration, plate are incubated at room temperature in the dark for 90 minutes. Reaction are stopped by vacuum filtration onto 0.3% polyethyleneimine soaked filter mats using Filtermate harvester. Scintilation cocktail is then melted onto microwave-dried filters on a hot plate and the radio activity is counted in Microbia counter.

Experiment [4] addresses T3, Muscarinic acetylcholine receptor M1 (Homo sapiens) (UniProt P11229).
T3 sequence (whole entry): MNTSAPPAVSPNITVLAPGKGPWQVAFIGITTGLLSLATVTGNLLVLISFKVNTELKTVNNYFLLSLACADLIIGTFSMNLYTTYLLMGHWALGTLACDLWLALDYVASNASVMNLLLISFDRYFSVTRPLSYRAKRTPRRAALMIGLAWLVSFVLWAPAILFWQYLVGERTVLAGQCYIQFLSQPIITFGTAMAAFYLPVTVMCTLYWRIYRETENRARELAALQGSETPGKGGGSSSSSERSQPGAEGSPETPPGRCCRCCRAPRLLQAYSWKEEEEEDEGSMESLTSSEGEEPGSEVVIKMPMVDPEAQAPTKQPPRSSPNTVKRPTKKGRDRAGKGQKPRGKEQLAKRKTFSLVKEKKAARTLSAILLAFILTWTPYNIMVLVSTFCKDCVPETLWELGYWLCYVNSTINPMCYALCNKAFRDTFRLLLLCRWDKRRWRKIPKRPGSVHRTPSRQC
Description: PDSP Primary Binding target: CHRM1 - Compounds are tested at 10 uM concentration, plate are incubated at room temperature in the dark for 90 minutes. Reaction are stopped by vacuum filtration onto 0.3% polyethyleneimine soaked filter mats using Filtermate harvester. Scintilation cocktail is then melted onto microwave-dried filters on a hot plate and the radio activity is counted in Microbia counter.

For experiment [5], the target named is T4, Alpha-1B adrenergic receptor (Homo sapiens) (UniProt P35368).
T4 sequence (whole entry): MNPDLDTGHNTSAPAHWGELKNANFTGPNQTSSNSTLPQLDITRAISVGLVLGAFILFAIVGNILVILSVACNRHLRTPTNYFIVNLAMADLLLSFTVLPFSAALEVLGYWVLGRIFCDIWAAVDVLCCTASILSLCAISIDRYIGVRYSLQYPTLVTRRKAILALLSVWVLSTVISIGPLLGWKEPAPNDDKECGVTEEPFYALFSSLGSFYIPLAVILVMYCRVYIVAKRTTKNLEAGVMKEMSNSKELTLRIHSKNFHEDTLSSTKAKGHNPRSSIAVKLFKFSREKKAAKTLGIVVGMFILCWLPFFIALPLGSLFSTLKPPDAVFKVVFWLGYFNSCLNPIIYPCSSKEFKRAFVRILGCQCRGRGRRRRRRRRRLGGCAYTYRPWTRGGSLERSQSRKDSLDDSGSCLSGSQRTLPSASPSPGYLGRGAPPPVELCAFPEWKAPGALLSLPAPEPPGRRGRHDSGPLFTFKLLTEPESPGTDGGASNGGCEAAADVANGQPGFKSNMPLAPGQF
Description: PDSP Primary Binding target: ADRA1B - Compounds are tested at 10 uM concentration, plate are incubated at room temperature in the dark for 90 minutes. Reaction are stopped by vacuum filtration onto 0.3% polyethyleneimine soaked filter mats using Filtermate harvester. Scintilation cocktail is then melted onto microwave-dried filters on a hot plate and the radio activity is counted in Microbia counter.

Experiment [6] addresses 5-hydroxytryptamine receptor 1D (Homo sapiens) (UniProt P28221).
Description: PDSP Primary Binding target: HTR1D - Compounds are tested at 10 uM concentration, plate are incubated at room temperature in the dark for 90 minutes. Reaction are stopped by vacuum filtration onto 0.3% polyethyleneimine soaked filter mats using Filtermate harvester. Scintilation cocktail is then melted onto microwave-dried filters on a hot plate and the radio activity is counted in Microbia counter.
Experiment [7] deals with T5, 5-hydroxytryptamine receptor 2C (Homo sapiens) (UniProt P28335).
T5 sequence (whole entry): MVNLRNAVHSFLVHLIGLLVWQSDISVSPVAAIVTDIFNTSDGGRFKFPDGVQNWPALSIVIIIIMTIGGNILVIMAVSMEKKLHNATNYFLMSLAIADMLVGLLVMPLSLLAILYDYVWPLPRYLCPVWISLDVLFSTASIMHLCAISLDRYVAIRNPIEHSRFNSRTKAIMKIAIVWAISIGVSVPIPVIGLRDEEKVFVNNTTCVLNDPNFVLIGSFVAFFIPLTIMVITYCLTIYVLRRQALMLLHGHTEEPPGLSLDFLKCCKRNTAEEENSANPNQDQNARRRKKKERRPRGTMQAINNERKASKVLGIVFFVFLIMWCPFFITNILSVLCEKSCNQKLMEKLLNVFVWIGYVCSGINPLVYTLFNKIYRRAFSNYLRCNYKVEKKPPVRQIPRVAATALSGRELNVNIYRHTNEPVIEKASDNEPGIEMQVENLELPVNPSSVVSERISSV
Description: PDSP Primary Binding target: HTR2C - Compounds are tested at 10 uM concentration, plate are incubated at room temperature in the dark for 90 minutes. Reaction are stopped by vacuum filtration onto 0.3% polyethyleneimine soaked filter mats using Filtermate harvester. Scintilation cocktail is then melted onto microwave-dried filters on a hot plate and the radio activity is counted in Microbia counter.

Chain of 5-hydroxytryptamine receptor 1D (Homo sapiens) (P28221 whole entry): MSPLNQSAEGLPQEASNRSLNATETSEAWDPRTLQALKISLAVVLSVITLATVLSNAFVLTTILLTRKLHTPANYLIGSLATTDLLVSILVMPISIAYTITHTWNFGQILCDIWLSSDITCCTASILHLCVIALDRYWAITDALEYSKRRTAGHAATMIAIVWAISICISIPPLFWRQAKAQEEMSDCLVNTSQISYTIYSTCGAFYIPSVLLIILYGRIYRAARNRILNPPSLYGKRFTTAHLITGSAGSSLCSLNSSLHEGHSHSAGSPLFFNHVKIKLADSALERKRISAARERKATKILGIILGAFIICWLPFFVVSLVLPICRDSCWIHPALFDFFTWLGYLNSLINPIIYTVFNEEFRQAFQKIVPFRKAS

On to `NCCc1cn(S(=O)(=O)c2c(Cl)nc3sccn23)c2ccccc12`, for which the inhibition in experiment [1] is 93.4%; in experiment [2] it was 16.8%; in experiment [3] it was 0.78%; in experiment [4] it was 38.9%; in experiment [5] it was 51.4%; in experiment [6] it was 81.9%.

With `N#Cc1c(N)nc(SCc2csc(-c3ccc(Cl)cc3)n2)c(C#N)c1-c1ccc(OCCO)cc1`, the inhibition is 26.7% in experiment [1]; 39.9% in experiment [7]; -3.33% in experiment [4]; 7.17% in experiment [5]; 5.65% in experiment [6].

As for `Cc1nn(C)c(C)c1-c1cccc2c1CC[C@H](N(C)C)C2`, the inhibition in experiment [1] was 89.8%; in experiment [2] it was 14.6%; in experiment [7], 13.1%; in experiment [3], 69.2%; in experiment [4], 29.3%; in experiment [5], 1.62%. In addition, the inhibition in experiment [6] is 95.6%.

As to `OC[C@H]1O[C@@H](n2cnc3c(NC4CCCC4)ncnc32)[C@H](O)[C@@H]1O`, the inhibition in experiment [1] was -6.3%; in experiment [7], -3.43%; in experiment [4] it was 15.4%; in experiment [5] it was 9.65%; in experiment [6] it was 24.7%.

Consider `O=C(O)c1cc(-c2ccc(C3CCNCC3)cc2)c2ccc(-c3ccc(C(F)(F)F)cc3)cc2c1`, for which the inhibition in experiment [1] was 42.2%; in experiment [2], 26.5%; in experiment [7], -3.35%; in experiment [3], 51.9%; in experiment [4], 23.8%; in experiment [5] it was 38.4%. The inhibition in experiment [6] was 73.1%.

For the compound `CN1CCN(c2ccc(Nc3c4ccccc4nc4ccccc34)cc2)CC1`, the inhibition is 70.5% in experiment [1]; 12.4% in experiment [2]; 16.7% in experiment [7]; 42.3% in experiment [3]; 51.2% in experiment [4]; 53.5% in experiment [5]. Moreover, in experiment [6], the inhibition was 54.3%.

With `CC1CCN(CC[C@H]2CCCN2S(=O)(=O)c2cccc(O)c2)CC1`, the inhibition is 65.6% in experiment [1]; 62.9% in experiment [2]; 1.99% in experiment [3]; -8.14% in experiment [4]; -3.56% in experiment [5]; 88.7% in experiment [6].

Take `CCc1cc2c(cc1CC)CC(NC[C@H](O)c1ccc(O)c3[nH]c(=O)ccc13)C2`: the inhibition in experiment [1] was 42.1%; in experiment [2], 21%; in experiment [7], 66.8%; in experiment [3], 37.8%; in experiment [4] it was -6.02%; in experiment [5], 59%. The inhibition in experiment [6] is 118%.

Take `O=c1ccc2ccc(OCCCCN3CCN(c4cccc5sccc45)CC3)cc2[nH]1`: the inhibition in experiment [1] is 104%; in experiment [2] it was 26.8%; in experiment [7] it was 103%; in experiment [3], 38.2%; in experiment [4], 30.3%; in experiment [5], 97.3%. Besides, the inhibition in experiment [6] was 104%.

Consider `COc1ccc(NC(=O)c2ccc(-c3ccc(-c4noc(C)n4)cc3C)cc2)cc1OCCN(C)C`, for which the inhibition in experiment [1] was 99.4%; in experiment [2], 5.21%; in experiment [7] it was 98.3%; in experiment [3], 37.9%; in experiment [4] it was 50.7%; in experiment [5], 26.8%. Also, the inhibition in experiment [6] is 101%.

For the compound `Cc1ccc(O)c([C@H](CCN(C(C)C)C(C)C)c2ccccc2)c1`, the inhibition was 20.2% in experiment [1]; -3.49% in experiment [2]; 0% in experiment [3]; 99.2% in experiment [4]; 17.4% in experiment [5]; 41.2% in experiment [6].

With `O=C1N/C(=N/c2ccccc2F)S/C1=C\c1ccc(C(=O)O)cc1`, the inhibition in experiment [2] is 56%; in experiment [4] it was 17.1%; in experiment [6], 19%.

With `CCC(=O)NCC[C@@H]1CCc2ccc3c(c21)CCO3`, the inhibition is 18.4% in experiment [1]; -7.21% in experiment [2]; -6.58% in experiment [7]; -3.08% in experiment [4]; -0.82% in experiment [5]; 6.75% in experiment [6].

Consider `CC1(C)SSC(C)(C)[C@@H](NC(=O)[C@@H](N)Cc2ccc(O)cc2)C(=O)NCC(=O)N[C@@H](Cc2ccccc2)C(=O)N[C@H]1C(=O)O`, for which the inhibition in experiment [1] was 13.7%; in experiment [4], -6.96%; in experiment [5], 8.91%; in experiment [6], 15.2%.

With `O=C(O)Cn1c(C(=O)Nc2nc(-c3ccccc3Cl)cs2)cc2ccccc21`, the inhibition was 8.83% in experiment [1]; 8.9% in experiment [2]; 12.4% in experiment [7]; 6.86% in experiment [4]; -9.67% in experiment [5]; 38.3% in experiment [6].

For the compound `c1nc(CC2CCNCC2)c[nH]1`, the inhibition was 14.5% in experiment [1]; -6.55% in experiment [2]; 1.07% in experiment [3]; 6.59% in experiment [4]; 15.3% in experiment [5]; 9.58% in experiment [6].

Regarding `NC[C@H](O)c1ccc(O)c(O)c1`, the inhibition in experiment [1] was 61.9%; in experiment [7] it was -4.42%; in experiment [4] it was -6.89%; in experiment [5] it was 37.9%; in experiment [6], 24.3%.

On to `CC(C)[C@H](CO)Nc1nc(Nc2cccc(Cl)c2)c2ncn(C(C)C)c2n1`, for which the inhibition in experiment [1] is 6.44%; in experiment [2] it was 9.06%; in experiment [7] it was 51%; in experiment [3] it was 21.1%; in experiment [5], 12.9%; in experiment [6], 60.1%.

Consider `CCc1nn(CCCN2CCN(c3cccc(Cl)c3)CC2)c(=O)n1CCOc1ccccc1`, for which the inhibition is 91.1% in experiment [1]; 32.2% in experiment [2]; 102% in experiment [7]; 30.8% in experiment [3]; 97.5% in experiment [5]; 100% in experiment [6].

Values taken from ChEMBL document CHEMBL5442219.
